Measurements as given in patent US9095161B2, “Preparation and use of methionylmethionine as feed additive for fish and crustaceans” (EVONIK DEGUSSA GmbH, priority 2008, dated 2015).

How the values were obtained:
[1] = Leaching characteristics from feed pellets under water; assay type: physicochemical; conditions: for dissolved out of feed pellets under water: 20.0 g pellets in 200 g water, 20° C.; for leaching compared with DL-methionine, MHA and calcium-MHA: compound feed pellets under water, identical conditions
Source text: The feed matrix used was a methionine-deficient feed mixture of conventional ingredients such as, for example, soybean meal, soybean oil, cornstarch, wheat meal, fish meal, cellulose, crystalline essential amino acids and minerals and vitamins as premixes. This mixture was then supplemented batchwise in 20 kg batches in each case with the methionine derivatives stated in table 5, with a 0.25% supplementation rate (based on sulfur equivalents), and was homogenized and then pelleted with steam treatment. As comparison with methionylmethionine (I), a pelleting experiment was carried out in each case with DL-methionine, MHA (methionine hydroxy analog) and calcium MHA. In addition, a control experiment was carried out by pelleting without addition of a methionine derivative (see table 5). The leaching characteristics of the diastereomers of methionylmethionine (I) from the feed pellets was then investigated under water. In this case, the dissolving out of methionylmethionine under water as a function of time, temperature, water composition (salt or fresh water) was determined. […] All the Erlenmeyer flask was subsequently agitated continuously with a laboratory shaker at a constant temperature of 20° C. Then, at defined time intervals, a sample of water was removed in each case and the content of the individual pairs of methionylmethionine diastereomers in the water was determined by HPLC (see table 7). For comparison, in each case the feed pellets supplemented with DL-methionine, MHA or calcium MHA were investigated under the same conditions and thus their leaching characteristics under water determined under the respective conditions (see FIG. 5 and table 7).

Litopenaeus vannamei = conditions: feeding experiments; cited from earlier work
chickens = conditions: cited from earlier work
[2] = system: enzyme cocktail of digestive and liver enzymes from carp
Procedure: The method for isolating the digestive enzymes was based on that of EID and MATTY (Aquaculture 1989, 79, 111-119). […] To isolate liver enzymes, the livers were isolated, homogenized and treated in analogy to the processing of the intestinal enzymes in example 22. The procedure for enzyme isolation from the pancreas was also analogous thereto.
D-Methionine was taken up in buffer solution, and the enzyme solution was added. A blank without enzyme solution was made up in each case as comparison and for estimating the purely chemical transformation rate. After 24 hours, a sample was taken and the composition was detected and quantified with the aid of calibrated HPLC.

[3] = Stability during pelleting and steam treatment of the feed mixture; assay type: physicochemical; conditions: mixtures with natural protein and carbohydrate sources
Source text: The feed matrix used was a methionine-deficient feed mixture of conventional ingredients such as, for example, soybean meal, soybean oil, cornstarch, wheat meal, fish meal, cellulose, crystalline essential amino acids and minerals and vitamins as premixes. This mixture was then supplemented batchwise in 20 kg batches in each case with the methionine derivatives stated in table 5, with a 0.25% supplementation rate (based on sulfur equivalents), and was homogenized and then pelleted with steam treatment. As comparison with methionylmethionine (I), a pelleting experiment was carried out in each case with DL-methionine, MHA (methionine hydroxy analog) and calcium MHA. In addition, a control experiment was carried out by pelleting without addition of a methionine derivative (see table 5). In this case, the amino acid determination was based on EU method 98/64/EC. After extraction of the free amino acids and methionylmethionine (I), these were subsequently determined with the aid of an amino acid analyzer by post-column derivatization with ninhydrin (see table 6).

CSCCC(N)C(=O)O (racemic) [Methionine, DL-methionine]
dissolved out of feed pellets under water ([1]; Time 0): 4.0%
dissolved out of feed pellets under water ([1]; Time 5): 12.0%
dissolved out of feed pellets under water ([1]; Time 10): 16.0%
dissolved out of feed pellets under water ([1]; Time 15): 24.0%
dissolved out of feed pellets under water ([1]; Time 30): 39.9%
dissolved out of feed pellets under water ([1]; Time 60): 59.9%
dissolved out of feed pellets under water ([1]; Time 120): 79.8%
dissolved out of feed pellets under water ([1]; Time 210): 87.8%
activity as feed additive compared with L-methionine (Litopenaeus vannamei): same activity as L-methionine

poly-L-methionine
biological value (chickens): lack of biological value

CSCCC(N)C(=O)NC(CCSC)C(=O)O (stereo not drawn) [DL/LD-I, DL/LD-methionylmethionine]
dissolved out of feed pellets under water ([1]; Time 0): 0.6%
dissolved out of feed pellets under water ([1]; Time 5): 0.7%
dissolved out of feed pellets under water ([1]; Time 10): 0.9%
dissolved out of feed pellets under water ([1]; Time 15): 0.6%
dissolved out of feed pellets under water ([1]; Time 30): 0.6%
dissolved out of feed pellets under water ([1]; Time 60): 1.7%
dissolved out of feed pellets under water ([1]; Time 120): 1.7%
dissolved out of feed pellets under water ([1]; Time 210): 3.8%
maximum dissolved out of the feed pellets ([1]; after a residence time of 200 min): ≤ 5%
leaching compared with DL-methionine, MHA and calcium-MHA [1]: distinctly less leaching

CSCC[C@@H](N)C(=O)O [D-methionine]
biotransformation of D-methionine to L-methionine [2]: may be transformed into L-methionine

CSCCC(N)C(=O)NC(CCSC)C(=O)O (mixture of isomers) [LL/DD/LD/DL-I, DL-methionyl-DL-methionine]
dissolved out of feed pellets under water ([1]; Time 0): 1.5%
dissolved out of feed pellets under water ([1]; Time 5): 2.0%
dissolved out of feed pellets under water ([1]; Time 10): 3.2%
dissolved out of feed pellets under water ([1]; Time 15): 3.6%
dissolved out of feed pellets under water ([1]; Time 30): 5.4%
dissolved out of feed pellets under water ([1]; Time 60): 9.5%
dissolved out of feed pellets under water ([1]; Time 120): 12.3%
dissolved out of feed pellets under water ([1]; Time 210): 17.0%
leaching compared with DL-methionine, MHA and calcium-MHA [1]: distinctly less leaching
stability during pelleting, extrusion and steam treatment [3]: stable
stability during pelleting, extrusion and steam treatment ([3]; listed as DL-methionyl-DL-methionine (I)): absolutely stable
stability during pelleting, extrusion and steam treatment ([3]; listed as methionylmethionine (I)): remained stable

CSCCC(O)C(=O)O (racemic) [MHA, rac-2-hydroxy-4-(methylthio)butanoic acid, reference compound]
dissolved out of feed pellets under water ([1]; Time 0): 6.0%
dissolved out of feed pellets under water ([1]; Time 5): 12.8%
dissolved out of feed pellets under water ([1]; Time 10): 20.8%
dissolved out of feed pellets under water ([1]; Time 15): 28.8%
dissolved out of feed pellets under water ([1]; Time 30): 50.5%
dissolved out of feed pellets under water ([1]; Time 60): 75.4%
dissolved out of feed pellets under water ([1]; Time 120): 94.1%
dissolved out of feed pellets under water ([1]; Time 210): 99.9%

CSCCC(N)C(=O)NC(CCSC)C(=O)O (stereo not shown) [LL/DD-I, DD/LL-methionylmethionine]
dissolved out of feed pellets under water ([1]; Time 0): 2.7%
dissolved out of feed pellets under water ([1]; Time 5): 3.7%
dissolved out of feed pellets under water ([1]; Time 10): 6.5%
dissolved out of feed pellets under water ([1]; Time 15): 7.7%
dissolved out of feed pellets under water ([1]; Time 30): 12.1%
dissolved out of feed pellets under water ([1]; Time 60): 20.6%
dissolved out of feed pellets under water ([1]; Time 120): 27.4%
dissolved out of feed pellets under water ([1]; Time 210): 35.9%
leaching compared with DL-methionine, MHA and calcium-MHA [1]: distinctly less leaching

CSCCC(O)C(=O)[O-].CSCCC(O)C(=O)[O-].[Ca+2] (stereo not shown) [MHA-Ca, reference compound]
dissolved out of feed pellets under water ([1]; Time 0): 8.6%
dissolved out of feed pellets under water ([1]; Time 5): 16.5%
dissolved out of feed pellets under water ([1]; Time 10): 28.2%
dissolved out of feed pellets under water ([1]; Time 15): 39.4%
dissolved out of feed pellets under water ([1]; Time 30): 61.7%
dissolved out of feed pellets under water ([1]; Time 60): 82.4%
dissolved out of feed pellets under water ([1]; Time 120): 94.1%
dissolved out of feed pellets under water ([1]; Time 210): 97.0%
